Laboratory results taken from patent US20070010459A1, “Application of asiatic acid and its derivatives to treat pulmonary fibrosis” (priority 2005, published 2007).

What was measured:
Beagle dogs [1] = test: Acute toxicity study in Beagle dogs; assay type: in vivo; conditions: single administration
Description: Therefore the highest dosage was given to the animal. […] Food uptake and activity were normal in the observation period.

SD rats [2] = test: General reproductive toxicity study in rats; assay type: in vivo
Description: SD rats were intragastric administrated with 120, 380 or 1200 mg/kg of asiaticoside respectively. Male and female were given 4 weeks or two weeks of asiaticoside before combining the cages. The male ones were given 5 additional weeks of asiaticoside, while female ones were given the drug till the 15th day of gestation. […] Weight, contour, internal organs and skeleton of fetus were all normal.

[3] = test system: primary culture of mice fibroblast; test: bFGF-stimulated proliferation of primary fibroblast culture; assay type: cell-based; conditions: bFGF 0.5 g/ml; tested at 25, 12.5, 6.25, 3.125 or 1.56 μg
Description: Using bFGF (0.5 µg/ml), the proliferation of primary culture of mice fibroblast with the presence of asiaticoside or asiatic acid at 25, 12.5, 6.25, 3.125 or 1.56 μg respectively was assessed.

SD rats [4] = test: Embryonic and fetus toxicity and teratogenicity test in SD rats; assay type: in vivo
Description: SD rats were given 120, 380 or 1200 mg/kg of asiaticoside respectively through intragastric administration for 10 consecutive days from day 6-15 of gestation. […] Nor there were any fetus anomalies or obform.

[5] = test system: rats with pulmonary fibrosis induced by bleomycin; test: Pharmacodynamics of asiaticoside in rats with pulmonary fibrosis induced by bleomycin; assay type: in vivo
Description: The rats with lung fibrosis were induced by bleomycin through trachea administration and then treated with asiaticoside. […] The study regimen lasted for 28 days. The lung weight coefficient and hydroyproline (HXP) content were measured on day 2 and 8 after the formation of animal model. CT scan, pathology and serum ECM content measurements were conducted on day 14, 21 and 28 days respectively.

[6] = Pharmacokinetics, tissue distribution and excretion of asiaticoside; assay type: in vivo, rats; conditions: rats, asiaticoside gavage, highest dose (100 mg/kg)
Description: Three doses of asiaticoside (10, 33, 100 mg/kg) were gavaged to rats (n=6) and canines (n=4). After dosing, blood was sampled up to 120 or 216 hours in rats and canines respectively. Tissue distribution and excretion studies in rats were carried out with the highest dose.
The respective asiaticoside and asiatic acid in the same bio-matrix were detected by LC/MS/MS and GC/MS. Because the secondary peak resembled a plasma concentration-time profile in both rat and canine rather than conventional compartment fitting, statistical moment analysis was used in calculating pharmacokinetic parameters. […] In addition to the targeted organ, both asiaticoside and asiatic acid were distributed in some other organs, which could be the sign to expand clinical indications.

[7] = test system: radiation pneumonia and subsequent pulmonary fibrosis induced by Cobalt-60 radiation; test: Pharmacodynamics of asiaticoside in radiation pneumonia induced by Cobalt-60 radiation; assay type: in vivo, rats; parameters: Type IV (collagen content comparison, serum ECM) / Laminin (serum ECM) / Hyaluronic Acid (serum ECM): unit not given here
Description: Radiation pneumonia and subsequent pulmonary fibrosis in rats was induced by Cobalt-60 radiation. The efficacies were assessed by the lung weight coefficient, HXP content, serum ECM measurement, CT scan and pathological examinations.

Beagle dogs [8] = test: Chronic toxicity study in Beagle dogs; assay type: in vivo
Description: Beagle dogs were given 18, 72 or 240 mg/kg asiaticoside respectively daily for 9 consecutive months along with a control group.

[9] = PK study: plasma asiaticoside and asiatic acid after intragastric asiaticoside; assay type: in vivo, SD rats; conditions: asiaticoside 100 mg/kg intragastric; 0.5-24 hours; LC/MS
Description: SD rats were given asiaticoside through intragastric administration at 100 mg/kg. The blood samples were taken 0.5, 1, 2, 4, 6, 9, 12 and 24 hours after administration respectively. Plasma samples were prepared and analyzed for asiaticoside and asiatic acid concentration by LC/MS or GC/MS respectively. […] The plasma concentration of asiatic acid peaked after 4-6 hours after administration.

[10] = asiaticoside, range over 3 doses (4, 12, 36 mg/kg)

Question: With `C[C@H]1[C@H](C)CC[C@]2(C(=O)O[C@@H]3O[C@H](CO[C@@H]4O[C@H](CO)[C@@H](O[C@@H]5O[C@H](C)[C@H](O)[C@@H](O)[C@H]5O)[C@H](O)[C@H]4O)[C@@H](O)[C@H](O)[C@H]3O)CC[C@]3(C)C(=CC[C@@H]4[C@@]5(C)C[C@@H](O)[C@H](O)[C@@](C)(CO)[C@@H]5CC[C@]43C)[C@H]12` [Asiaticoside, asiaticoside] as the compound, how does the “Highest dose given, no toxicity observed (no acute LD50 could be measured)” value (Beagle dogs [1]) read?
Answer: 10 g/kg

Question: And the “Clinical observation in male and female animals” value (SD rats [2]; 1.2 g/kg)?
Answer: bleeding around apertura narium

Question: What about the Reproductive toxicity (SD rats [2]; 120, 380 or 1200 mg/kg intragastric) of the same compound?
Answer: no reproductive toxicity

Question: What about the “Inhibitory activity on fibroblast proliferation” value [3] of the same compound?
Answer: no apparent inhibitory activity

Question: What about the “Dose without embryonic and fetus toxicity as multiple of effective dose (6 mg/kg) in mice” value (SD rats [4]; 1.2 g/kg) of the same compound?
Answer: 200 ×

Question: And the “Incidence rate of enlargement of fetus pelvis renalis” value (SD rats [4]; 1.2 g/kg)?
Answer: increased, yet this was not statistically significant

Question: And the “Embryonic and fetus toxicity” value (SD rats [4]; 120, 380 or 1200 mg/kg intragastric, day 6-15 of gestation)?
Answer: no embryonic and fetus toxicity

Question: What about the “Dose with no embryonic and fetus toxicity” value (SD rats [4]; intragastric, day 6-15 of gestation) of the same compound?
Answer: 1.2 g/kg

Question: What about the HXP content ([5]; asiaticoside 4 mg/kg, 28 days) of the same compound?
Answer: 19.63 ± 3.91 mg/g

Question: What about the Lung weight coefficient ([5]; asiaticoside 4 mg/kg, 28 days) of the same compound?
Answer: 0.63%

Question: What about the HXP content ([5]; asiaticoside 12 mg/kg, 28 days) of the same compound?
Answer: 18.95 ± 7.00 mg/g

Question: What about the Lung weight coefficient ([5]; asiaticoside 12 mg/kg, 28 days) of the same compound?
Answer: 0.66%

Question: And the HXP content ([5]; asiaticoside 36 mg/kg, 28 days)?
Answer: 18.56 ± 3.98 mg/g

Question: What about the Lung weight coefficient ([5]; asiaticoside 36 mg/kg, 28 days) of the same compound?
Answer: 0.64%

Question: What about the Pathology ([5]; asiaticoside 4, 12, 36 mg/kg) of the same compound?
Answer: light fibroplasias in alveoli pulmonis diaphragm, light lymphocyte infiltration and compensatory emphysema

Question: What about the CT scan findings ([5]; asiaticoside 4, 12, 36 mg/kg, not dose dependent) of the same compound?
Answer: ground glass infiltration in the lung tissue was found, but was significantly less than in the model group

Question: And the Overall efficacy ([5]; asiaticoside 4, 12 and 36 mg/kg, 28 days)?
Answer: efficacious in preventing and treating lung fibrosis induced by bleomycin to certain extent

Question: And the “ET-1 (cytokine content)” value [5, 10]?
Answer: 229.62-241.60

Question: And the “Hyaluronic Acid (serum ECM)” value [5, 10]?
Answer: 112.66-312.28

Question: What about the “Laminin (serum ECM)” value [5, 10] of the same compound?
Answer: 43.83-55.75

Question: And the “PIIIP (collagen content comparison, serum ECM)” value (“PIIIP” for short) [5, 10]?
Answer: 13.87-24.54

Question: And the “TNF-α (cytokine content)” value [5, 10]?
Answer: 5.20-6.49

Question: And the “TNF-[…] (cytokine content)” value [5, 10]?
Answer: 0.067-0.077

Question: What about the “Type IV (collagen content comparison, serum ECM)” value (from here on “Type IV”) [5, 10] of the same compound?
Answer: 4.33-10.45

Question: And the Main excretion route [6]?
Answer: feces, bile and urine

Question: And the Tissue accumulation [6]?
Answer: no apparent tissue accumulation

Question: What about the HXP content ([7]; asiaticoside 4 mg/kg) of the same compound?
Answer: 40.88 ± 9.77 mg/g

Question: And the “Hyaluronic Acid (serum ECM)” value ([7]; asiaticoside 4 mg/kg)?
Answer: 259.01 ± 64.39

Question: What about the “Laminin (serum ECM)” value ([7]; asiaticoside 4 mg/kg) of the same compound?
Answer: 39.21 ± 5.69

Question: What about the Lung weight coefficient ([7]; asiaticoside 4 mg/kg) of the same compound?
Answer: 0.42%

Question: What about the “PIIIP” value ([7]; asiaticoside 4 mg/kg) of the same compound?
Answer: 21.00 ± 9.50

Question: What about the “Type IV” value ([7]; asiaticoside 4 mg/kg) of the same compound?
Answer: 14.74 ± 4.03

Question: What about the HXP content ([7]; asiaticoside 12 mg/kg) of the same compound?
Answer: 32.78 ± 4.37 mg/g

Question: What about the “Hyaluronic Acid (serum ECM)” value ([7]; asiaticoside 12 mg/kg) of the same compound?
Answer: 246.91 ± 33.2

Question: And the “Laminin (serum ECM)” value ([7]; asiaticoside 12 mg/kg)?
Answer: 41.11 ± 9.15

Question: What about the Lung weight coefficient ([7]; asiaticoside 12 mg/kg) of the same compound?
Answer: 0.20%

Question: And the “PIIIP” value ([7]; asiaticoside 12 mg/kg)?
Answer: 18.84 ± 10.70

Question: What about the “Type IV” value ([7]; asiaticoside 12 mg/kg) of the same compound?
Answer: 11.97 ± 4.09

Question: What about the HXP content ([7]; asiaticoside 36 mg/kg) of the same compound?
Answer: 31.38 ± 4.75 mg/g

Question: And the “Hyaluronic Acid (serum ECM)” value ([7]; asiaticoside 36 mg/kg)?
Answer: 220.64 ± 67.55

Question: What about the “Laminin (serum ECM)” value ([7]; asiaticoside 36 mg/kg) of the same compound?
Answer: 48.29 ± 10.67

Question: What about the Lung weight coefficient ([7]; asiaticoside 36 mg/kg) of the same compound?
Answer: 0.34%

Question: What about the “PIIIP” value ([7]; asiaticoside 36 mg/kg) of the same compound?
Answer: 14.27 ± 10.40

Question: What about the “Type IV” value ([7]; asiaticoside 36 mg/kg) of the same compound?
Answer: 10.04 ± 5.69

Question: And the CT scan findings ([7]; high dose asiaticoside group)?
Answer: a few fibrotic streaks

Question: And the CT scan findings ([7]; low dose asiaticoside group)?
Answer: mild ground glass infiltration and atelectasis in the right lower lung

Question: And the CT scan findings ([7]; median dose asiaticoside group)?
Answer: mild ground glass infiltration and fibrotic streaks in the right lung

Question: And the Overall efficacy ([7]; pulmonary fibrosis induced by radiation)?
Answer: efficacious in treating pulmonary fibrosis induced by radiation to certain extent

Question: What about the “Nontoxic dose as multiple of proposed clinical dosage in human” value (Beagle dogs [8]; 240 mg/kg/d) of the same compound?
Answer: 40 ×

Question: And the Nontoxic dose (Beagle dogs [8]; 9-month chronic toxicity study, 18, 72 or 240 mg/kg daily)?
Answer: 240 mg/kg/day

Question: What about the “Toxicity observations (behavior, activity, weight, mental state, excrement and urine)” value (Beagle dogs [8]; 18, 72 or 240 mg/kg daily for 9 consecutive months) of the same compound?
Answer: no apparent toxicity

Question: And the “Plasma concentration of asiaticoside” value [9]?
Answer: only trace quantity
